Earlier results, collected in PMC5729432, “A Phase 1 study of ARQ 087, an oral pan-FGFR inhibitor in patients with advanced solid tumours” (British Journal of Cancer, 2017).

Tests used:
[1] = system: patients with advanced solid tumours; set-up: method as in Andre et al, 2013b; Saka et al, 2017; conditions: ref Andre et al, 2013b; Saka et al, 2017
[2] = system: patients with advanced solid tumors; set-up: method as in Tabernero et al, 2015; conditions: ref Tabernero et al, 2015
patients = system: patients; set-up: method as in Nogova et al, 2017; conditions: at the RP2D; ref Nogova et al, 2017

SMILES: COc1cc(CCc2cc(NC(=O)c3ccc(N4CC(C)NC(C)C4)cc3)n[nH]2)cc(OC)c1 (stereo not shown) [AZD3547]
- common treatment-related AEs [1]: fatigue, mucositis, nausea, CSR, and hyperphosphataemia

SMILES: COc1cc(OC)cc(N(CCNC(C)C)c2ccc3ncc(-c4cnn(C)c4)nc3c2)c1 [JNJ-42756493]
- AE asthenia [2]: 55%
- AE constipation [2]: 34%
- AE decreased appetite [2]: 32%
- AE dry mouth [2]: 45%
- AE hyperphosphataemia [2]: 65%
- AE nail toxicity [2]: 35%
- dose interruptions for hyperphosphataemia [2]: 31%
- dose modifications for hyperphosphataemia [2]: 8%

SMILES: CCN1CCN(c2ccc(Nc3cc(N(C)C(=O)Nc4c(Cl)c(OC)cc(OC)c4Cl)ncn3)cc2)CC1 [BGJ398]
- patients requiring dose adjustments or interruptions for hyperphosphataemia (patients): 50%
